The source of these data is patent publication US8969297B2, “Methods and compositions for the induction of hypothermia” (priority 2009, dated 2015).

Data set [1] concerns asphyxial cardiac arrest rat model. In words: Survival in rat outcome model of asphyxial cardiac arrest. Format: in vivo. As to conditions: for Survival days: individual rats; for effect on mortality / neurological deficit score: compound alone under normothermic conditions. As to the method: (§1) The outcome model of asphyxial cardiac arrest in rats was used for these studies and has been described previously (Katz et al. (1995) J Cereb Blood Flow Metab 15:1032-1039). Briefly, rats were anesthetized with 4% isoflurane, intubated and mechanically ventilated, anesthesia was titrated and vessel catheters inserted. Cardiac arrest was induced by apneic asphyxia with chemical paralysis (vecuronium 2 mg/kg) and discontinuation of ventilation. After 10 minutes of asphyxial cardiac arrest, rats were resuscitated with mechanical ventilation, 100% O2, epinephrine (0.005 mg/kg) and chest compressions. Rats were extubated two hours after resuscitation and placed in a humidity and temperature controlled incubator. Rats were sacrificed by an overdose (5%) of inhaled isoflurane and then perfusion fixed with 100 ml of 4% paraformaldehyde at a perfusion pressure of 100 mmHg. Multiple coronal sections (10 μm thickness) of the brain (Paxinos et al. (1995) J Neurosci Methods 13:139-143) were cryosectioned for future immunostaining and histological evaluation.
(§2) Rats underwent ten minutes of asphyxial cardiac arrest and resuscitation. Five minutes after the return of spontaneous circulation (ROSC), rats were administered 15 ml/kg of iced normal (0.9%) saline (5° C.) (forced hypothermia) or half of the indicated treatment (at room temperature, 21° C.) intravenously over 20 minutes. The first infusion was followed immediately by a second 20-minutee infusion (15 ml/kg) with iced saline (5° C.) for the forced hypothermia group or the second half of the indicated treatment (at 21° C.).
The rat outcome model of asphyxial cardiac arrest was used to test each of the components of the cocktail to determine the effects of the components on NDS and performance in the Morris Water Maze. Rats undergoing forced hypothermia and rats maintained under normothermic conditions (with 0.5 U/kg vasopressin administered) served as controls.

For data set [2] the following is noted: Gable (2004); cited from earlier work.
The test system of data set [3] is rats. The conditions noted are these: ethanol alone. As for the experimental part:
as §2

Data set [4] has as its system asphyxial cardiac arrest rat model. In words: Neurological deficit score (NDS) in rat model of asphyxial cardiac arrest. The class given is in vivo. The conditions noted are these: normothermic conditions; for NDS 72 hours after resuscitation: ethanol alone or vasopressin alone. As to the method:
as §1, with “evaluation. […]” for “evaluation.”
The total ND score is composed of 5 components as outlined below. A normal rat has a ND score of 0% and a brain-dead rat has an ND score of 100% (Katz et al. (1995) J Cereb Blood Flow Metab 15:1032-1039).
Five minutes after the return of spontaneous circulation (ROSC), rats were administered 15 ml/kg of iced normal (0.9%) saline (5° C.) (forced hypothermia) or half of the indicated treatment (at room temperature, 21° C.) intravenously over 20 minutes. The first infusion was followed immediately by a second 20-minutee infusion (15 ml/kg) with iced saline (5° C.) for the forced hypothermia group or the second half of the indicated treatment (at 21° C.).
The rat outcome model of asphyxial cardiac arrest was used to test each of the components of the cocktail to determine the effects of the components on NDS and performance in the Morris Water Maze. Rats undergoing forced hypothermia and rats maintained under normothermic conditions (with 0.5 U/kg vasopressin administered) served as controls. Raw survival and NDS data is shown in Table 1 and Table 2 provides a summary of the survival and NDS data.

[5] abbreviates: 20 mcg/kg, normothermic conditions.
Setting [6] is: 0.005 mg/kg, normothermic conditions.
[7] abbreviates: 0.8 g/kg, normothermic conditions.
[8] abbreviates: 1 mg/kg, normothermic conditions.
The mark [9] stands for this setting: 0.25 U/kg, normothermic conditions.

As for `NCCc1ccc(O)c(O)c1` [Dopamine, dopamine], in data set [1] (setting [5]), the “Average Survival days” value is listed as 1 days and the Survival days is listed as 1 days.

Consider `CNC[C@H](O)c1ccc(O)c(O)c1` [Epinephrine, epinephrine], for which the “Average Survival days” value stood at 1 days in data set [1] (setting [6]) and 1 days in data set [1] (0.01 mg/kg, normothermic conditions). This compound yielded a Survival days in data set [1] (setting [6]) of 1 days.

For `CCO` [Ethanol, ethanol], the “acute ingestion considered toxic” value in data set [2] was “above 10 g/kg”. Further, the “minimum dose able to reliably induce hypothermia” value in data set [3] is given as “about 0.75 g/kg”. In addition, in data set [3] (higher doses do not further lower the temperature), the “dose at which the hypothermic effect plateaus” value turned out to be 3 g/kg. In addition, the temperature reached result in data set [3] (maintained during infusion) is “about 33 °C”. The “NDS day 3, median neurological deficit score” value in data set [4] (1.5 g/kg) is on record as “NA, (36.5)”; in data set [4] (2 g/kg), “(31)”. The “neurological deficit score at 72 hours after resuscitation” value in data set [4] (ethanol alone 1 g/kg, 1.5 g/kg and 2 g/kg) was “reduced the neurological deficit score”. Moreover, in data set [4], the “NDS 72 hours after resuscitation” value is 31. Besides, the “Average Survival days” value in data set [1] (0.5 g/kg, normothermic conditions) was determined as 1 days; in data set [1] (setting [7]), 1 days; in data set [1] (1 g/kg, normothermic conditions) it was 1.5 days; in data set [1] (1.5 g/kg, normothermic conditions) it was 3 days; in data set [1] (2 g/kg, normothermic conditions), 3.33 days; in data set [1] (2.5 g/kg, normothermic conditions) it was 1 days. Further, the “Average Survival days” value in data set [1] (3 g/kg, normothermic conditions) came out at 1 days. The Survival days in data set [1] (setting [7]) was found to be 1 days. Further, the “effect on mortality / neurological deficit score” value in data set [1] was “mild reduction in mortality”.

As for `CCN(CC)CC(=O)Nc1c(C)cccc1C` [Lidocaine, 2-(diethylamino)-N-(2,6-dimethylphenyl)acetamide], in data set [1] (setting [8]), the “Average Survival days” value worked out at 1 days and the Survival days is 1 days.

With `Cc1[nH]c(=O)c(C#N)cc1-c1ccncc1` [Milrinone], the “Average Survival days” value in data set [1] (0.3 mg/kg, normothermic conditions) turned out to be 1 days.

For `CC(=O)N[C@@H](CS)C(=O)O` [N-Acetylcysteine, (2R)-2-acetamido-3-sulfanylpropanoic acid], the “NDS day 3, median neurological deficit score” value in data set [4] (150 mg/kg) is listed as “(38)”; in data set [4] (300 mg/kg), “NA, (40)”. Also, the “NDS day 3” value in data set [4] (300 mg/kg, individual rats) is “NA, 40”. The “Average Survival days” value is reported as 1.5 days in data set [1] (50 mg/kg, normothermic conditions); 3 days in data set [1] (150 mg/kg, normothermic conditions); 2.5 days in data set [1] (300 mg/kg, normothermic conditions).

Take `NC(=O)CC[C@@H]1NC(=O)[C@H](Cc2ccccc2)NC(=O)[C@H](Cc2ccc(O)cc2)NC(=O)[C@@H](N)CSSC[C@@H](C(=O)N2CCC[C@H]2C(=O)N[C@@H](CCCN=C(N)N)C(=O)NCC(N)=O)NC(=O)[C@H](CC(N)=O)NC1=O` [Vasopressin]: the results for the “NDS day 3, median neurological deficit score” value in data set [4] (0.5 U/kg) and in data set [4] (0.75 U/kg) were “(36)” and “(30)”, respectively. The “NDS day 7” value in data set [4] (0.5 U/kg, individual rats) is given as “NA, NA, 22”; in data set [4] (0.5 U/kg, single surviving rat (summary table)) it was “NA, NA, 22”. Further, in data set [4], the “NDS 72 hours after resuscitation” value turned out to be 30. The “neurological deficits 72 hours after resuscitation” value in data set [4] (vasopressin alone) is reported as “reduced neurological deficits”. Moreover, the “Average Survival days” value in data set [1] (0.5 U/kg, normothermic conditions) was 5 days; in data set [1] (0.75 U/kg, normothermic conditions) it was 3 days. The “effect on mortality / neurological deficit score” value in data set [1] is “minimal effect on mortality or the neurological deficit score”. Moreover, the enhancement of survival result in data set [1] (vasopressin alone, normothermic conditions) was “approximately 3 fold”.

Consider Insulin: antihyperglycemic compound, for which, in data set [1] (setting [9]), the “Average Survival days” value was determined as 2 days and the Survival days is on record as 2 days.
